Test results taken from PubChem BioAssay AID1259407 (Chemical Carcinogenesis Research Information System (CCRIS), 2018).
Activity calls are given as the source filed them. No rule for the calls is given here.

System: CCRIS mutagenicity, Ames/micronucleus/aberration tests
Experiment: CCRIS mutagenicity studies
[1] = Test System: AMES SALMONELLA TYPHIMURIUM, Strain/Indicator: TA98, Metabolic Activation: NONE, Method: STANDARD PLATE
[2] = Test System: AMES SALMONELLA TYPHIMURIUM, Strain/Indicator: TA100, Metabolic Activation: NONE, Method: STANDARD PLATE

Measured: mutagenic call

c1ccc2c(c1)-c1cccc3cccc-2c13
active: Test System: AMES SALMONELLA TYPHIMURIUM, Strain/Indicator: TA97, Metabolic Activation: RAT, LIVER, S-9, AROCLOR 1254, Method: TAPED-PLATE active; positive | Test System: AMES SALMONELLA TYPHIMURIUM, Strain/Indicator: TA97, Metabolic Activation: RAT, LIVER, S-9, PCB, Method: STANDARD PLATE active; positive | Test System: AMES SALMONELLA TYPHIMURIUM, Strain/Indicator: TA98, Metabolic Activation: RAT, LIVER, S-9, AROCLOR 1254, Method: FLUCTUATION active; positive | Test System: AMES SALMONELLA TYPHIMURIUM, Strain/Indicator: TA98, Metabolic Activation: RAT, LIVER, S-9, AROCLOR 1254, Method: TAPED-PLATE active; positive | Test System: AMES SALMONELLA TYPHIMURIUM, Strain/Indicator: TA98, Metabolic Activation: RAT, LIVER, S-9, PCB, Method: STANDARD PLATE active; positive | Test System: AMES SALMONELLA TYPHIMURIUM, Strain/Indicator: TA100, Metabolic Activation: RAT, LIVER, S-9, AROCLOR 1254, Method: FLUCTUATION active; positive | Test System: AMES SALMONELLA TYPHIMURIUM, Strain/Indicator: TA100, Metabolic Activation: RAT, LIVER, S-9, AROCLOR 1254, Method: TAPED-PLATE active; positive | Test System: AMES SALMONELLA TYPHIMURIUM, Strain/Indicator: TA100, Metabolic Activation: RAT, LIVER, S-9, PCB, Method: STANDARD PLATE active; positive | Test System: AMES SALMONELLA TYPHIMURIUM, Strain/Indicator: TA1537, Metabolic Activation: RAT, LIVER, S-9, AROCLOR 1254, Method: TAPED-PLATE active; positive
inactive: Test System: AMES SALMONELLA TYPHIMURIUM, Strain/Indicator: TA97, Metabolic Activation: NONE, Method: STANDARD PLATE inactive; negative | [1] inactive; negative | Test System: AMES SALMONELLA TYPHIMURIUM, Strain/Indicator: TA98, Metabolic Activation: RAT, LIVER, S-9, AROCLOR 1254 (4%), Method: STANDARD PLATE inactive; negative | [2] inactive; negative | Test System: AMES SALMONELLA TYPHIMURIUM, Strain/Indicator: TA102, Metabolic Activation: RAT, LIVER, S-9, AROCLOR 1254, Method: TAPED-PLATE inactive; negative | Test System: AMES SALMONELLA TYPHIMURIUM, Strain/Indicator: TA1535, Metabolic Activation: RAT, LIVER, S-9, AROCLOR 1254, Method: TAPED-PLATE inactive; negative | Test System: UDS RAT HEPATOCYTES, Strain/Indicator: THY INCORP, Metabolic Activation: NONE, Method: IN VIVO-IN VITRO inactive; negative

CC(Cc1ccc(O)c(O)c1)C(C)Cc1ccc(O)c(O)c1 (stereo unspecified)
inactive: Test System: AMES SALMONELLA TYPHIMURIUM, Strain/Indicator: TA98, Metabolic Activation: HAMSTER, LIVER, S-9, AROCLOR 1254, Method: STANDARD PLATE inactive; negative | [1] inactive; negative | Test System: AMES SALMONELLA TYPHIMURIUM, Strain/Indicator: TA98, Metabolic Activation: RAT, LIVER, S-9, AROCLOR 1254, Method: STANDARD PLATE inactive; negative | Test System: AMES SALMONELLA TYPHIMURIUM, Strain/Indicator: TA100, Metabolic Activation: HAMSTER, LIVER, S-9, AROCLOR 1254, Method: STANDARD PLATE inactive; negative | [2] inactive; negative | Test System: AMES SALMONELLA TYPHIMURIUM, Strain/Indicator: TA100, Metabolic Activation: RAT, LIVER, S-9, AROCLOR 1254, Method: STANDARD PLATE inactive; negative | Test System: AMES SALMONELLA TYPHIMURIUM, Strain/Indicator: TA1535, Metabolic Activation: HAMSTER, LIVER, S-9, AROCLOR 1254, Method: STANDARD PLATE inactive; negative | Test System: AMES SALMONELLA TYPHIMURIUM, Strain/Indicator: TA1535, Metabolic Activation: NONE, Method: STANDARD PLATE inactive; negative | Test System: AMES SALMONELLA TYPHIMURIUM, Strain/Indicator: TA1535, Metabolic Activation: RAT, LIVER, S-9, AROCLOR 1254, Method: STANDARD PLATE inactive; negative | Test System: AMES SALMONELLA TYPHIMURIUM, Strain/Indicator: TA1537, Metabolic Activation: HAMSTER, LIVER, S-9, AROCLOR 1254, Method: STANDARD PLATE inactive; negative | Test System: AMES SALMONELLA TYPHIMURIUM, Strain/Indicator: TA1537, Metabolic Activation: NONE, Method: STANDARD PLATE inactive; negative | Test System: AMES SALMONELLA TYPHIMURIUM, Strain/Indicator: TA1537, Metabolic Activation: RAT, LIVER, S-9, AROCLOR 1254, Method: STANDARD PLATE inactive; negative | Test System: AMES SALMONELLA TYPHIMURIUM, Strain/Indicator: TA1538, Metabolic Activation: HAMSTER, LIVER, S-9, AROCLOR 1254, Method: STANDARD PLATE inactive; negative | Test System: AMES SALMONELLA TYPHIMURIUM, Strain/Indicator: TA1538, Metabolic Activation: NONE, Method: STANDARD PLATE inactive; negative | Test System: AMES SALMONELLA TYPHIMURIUM, Strain/Indicator: TA1538, Metabolic Activation: RAT, LIVER, S-9, AROCLOR 1254, Method: STANDARD PLATE inactive; negative | Test System: MOUSE LYMPHOMA, Strain/Indicator: L5178Y (TK+/TK-), Metabolic Activation: RAT, LIVER, S-9, AROCLOR 1254, Method: SUSPENSION/PLATE inactive; negative. reevaluation of results: negative
active: Test System: MOUSE LYMPHOMA, Strain/Indicator: L5178Y (TK+/TK-), Metabolic Activation: NONE, Method: SUSPENSION/PLATE active; positive. reevaluation of results: positive

Cc1ccc(Cl)cc1N
inactive: End Point: IN VITRO CHROMOSOMAL ABERRATIONS, Test System: CHINESE HAMSTER OVARY CELLS, Metabolic Activation: NONE inactive; negative | End Point: IN VITRO CHROMOSOMAL ABERRATIONS, Test System: CHINESE HAMSTER OVARY CELLS, Metabolic Activation: RAT, LIVER, S-9, AROCLOR 1254 inactive; negative | Test System: UDS RODENT HEPATOCYTES, Strain/Indicator: THY INCORP (NON-S-PHASE), Metabolic Activation: NONE, Method: AUTORADIOGRAPHY inactive; negative
